How the values were obtained:
[1] = test system: NCI-H358 tumor-bearing mice; assay: Anti-tumor efficacy in NCI-H358 tumor-bearing mice, combination with AMG510; assay type: in vivo, NOG mice
Description: SPF female NOG mice (purchased from Beijing Vital River Laboratory Animal Technology Co., Ltd.) with certificate No. 1100112211001153625 were used in the experiment.
NCI-H358 cells were routinely subcultured for the subsequent in-vivo experiment. The cells were collected by centrifugation. Then the NCI-H358 cells were resuspended in an equal-proportion mixture of PBS (1×) and Matrigel Matrix (Corning) to prepare a cell suspension with a cell concentration of 25×10^6 cells/mL. On day 0, 0.2 mL of the cell suspension was taken and subcutaneously inoculated to the right abdominal area of NOG mice to establish NCI-H358 tumor-bearing mouse models.
Six days after the tumor cell inoculation, the tumor volume in each mouse was measured. The mice were grouped (with 7 mice in each group).
Administration was performed on days 6, 9, 12, and 15 after the inoculation of NCI-H358 cells. Mice were monitored for tumor volume and body weight twice a week. […] Mice were monitored for tumor volume twice a week, and were monitored for body weight every day during the administration, and twice a week after the end of administration. […] On day 33 after the inoculation, the relative tumor growth inhibition (TG1%) was calculated by the following formula: TG1%=100%×(control group tumor volume−treatment group tumor volume)/(control group tumor volume−control group tumor volume before administration).
Tumor volume measurement: The maximum length of major axis (L) and maximum length of minor axis (W) of tumors were measured with a vernier caliper, and tumor volume was calculated by the following formula: V=L×W^2/2. The mice were weighed using an electronic balance.

SK-MES-1 = assay: Proliferation inhibition experiment, SK-MES-1 (NSCLC); assay type: cell-based; settings: TKI highest concentration 1000 nM
Description: (§1) • (1) NSCLC: plated at 1500-2500 cells/100 μL in a 96-well low-adsorption plate (Corning, CLS7007-24EA) for 3D cell culture, in which the following cell lines and specific amounts were used: • NSCLC: 2000 cells/100 μL/well • NCI-H292: Cell Bank of the Chinese Academy of Sciences, SCSP-582 • NCI-H322: Cobioer, CBP60134 • NCI-H1650: ATCC, CRL-5883 • NCI-H1975: ATCC, CRL-5908 • SK-MES-1: CoBioer, CBP60152 • NCI-H1703: ATCC, HTB-43 • PC9+hB7H3: constructed as described above • CRC and HNSCC: plated at 1500-2000 cells/100 μL in a 96-well white-bottom plate (NUNC, 136101) for 2D cell culture, in which the following cell lines and specific amounts were used: • CRC: 1500 cells/100 μL/well • CCK-81: CoBioer, CBP60581 • HT-55: CoBioer, CBP60012 • H508: CoBioer, CBP60795 • LS180: CoBioer, CBP60034 • HNSCC: 1500 cells/100 μL/well • TE-1: CoBioer, CBP60655 • Colo680: CoBioer, CBP60452. (2) The antibody molecules prepared in advance by dilution were added to the corresponding cell well plate, mixed well, and cultured in an incubator at 37° C. with 5% CO2 for 5 days. • (3) After 5 days of continuous culture for proliferation inhibition assay, the Cell-Titer reagent (Promega, G7572) prepared in advance was added to cell wells, the plate was left to stand at room temperature for 15-25 min in the dark, and then CRC and HNSCC cells were directly detected by a multimode microplate reader (Molecular Devices, Spectra MAXi3). • (4) NSCLC: Cell-Titer and the cell mixture were transferred to a 96-well white-bottom plate (NUNC, 136101) and detected by a multimode microplate reader (Molecular Devices, Spectra MAXi3).

H1703 = assay: Proliferation inhibition experiment, H1703 (NSCLC); assay type: cell-based; settings: NCI-H1703; TKI highest concentration 1000 nM
Description: as §1

[2] = test system: LS180 (EGFR^R521K, KRAS^G12D) CRC tumor cell line; assay: Proliferation inhibition experiment, LS180, combination with MRTX1133; assay type: cell-based; settings: 15.62 nM MRTX1133, read as without bsAb (starting value of the increase)
Description: • (1) NSCLC (H358) (Cobioer, CBP60136) and CRC (LS180) (Cobioer, CBP60034): plated at 1500-2500 cells/100 μL in a 96-well low-adsorption plate (Corning, CLS7007-24EA) for 3D cell culture. • (2) The antibody molecules and small molecule inhibitors prepared in advance by dilution were added to the corresponding cell well plate, mixed well, and cultured at 37° C. with 5% CO2 for 5 days. • (3) After 5 days of continuous culture for proliferation inhibition assay, the Cell-Titer reagent (Promega, G7572) prepared in advance was added to cell wells, and the plate was left to stand at room temperature for 15-25 min in the dark. • (4) Cell-Titer and the above cell mixture were transferred to a 96-well white-bottom plate (NUNC, 136101) and detected by a multimode microplate reader (Molecular Devices, Spectra MAXi3).

| Structure (SMILES) | sensitivity of the cell line to EGFR-TKI, in words (SK-MES-1) | sensitivity of the cell line to EGFR-TKI, in words (H1703) | further results |
| --- | --- | --- | --- |
| C=CC(=O)N1CCN(c2nc(=O)n(-c3c(C)ccnc3C(C)C)c3nc(-c4c(O)cccc4F)c(F)cc23)[C@@H](C)C1 [AMG510, sotorasib] | – | – | Tumor volume (mm^3) ([1]; NCI-H358, NOG mice, antibodies 10 mg/kg i.p. Q3-4D x4 (h-IgG 20 mg/kg), AMG510 10 mg/kg intragastric QD x14, day 33): 180 mm^3; Tumor growth inhibition (%) ([1]; NCI-H358, NOG mice, antibodies 10 mg/kg i.p. Q3-4D x4, AMG510 10 mg/kg intragastric QD x14, day 33, vs h-IgG 20 mg/kg): 89%; body weight of mice ([1]; NCI-H358 tumor-bearing NOG mice, during administration and on day 33): caused a gradual decrease in the body weight of mice |
| C#Cc1cccc(Nc2ncnc3cc(OCCOC)c(OCCOC)cc23)c1 [erlotinib] | resistant and not sensitive | resistant and not sensitive | – |
| C=CC(=O)Nc1cc(Nc2nccc(-c3cn(C)c4ccccc34)n2)c(OC)cc1N(C)CCN(C)C [osimertinib] | resistant and not sensitive | resistant and not sensitive | – |
| C#Cc1c(F)ccc2cc(O)cc(-c3ncc4c(N5CC6CCC(C5)N6)nc(OC[C@@]56CCCN5C[C@H](F)C6)nc4c3F)c12 [MRTX1133] | – | – | anti-LS180 tumor efficacy [2]: 36.45% |

— patent US20250381269A1, “BISPECIFIC ANTIBODY BINDING EGFR AND B7-H3” (FORTVITA BIOLOGICS (SINGAPORE) PTE. LTD., priority 2022, published 2025)
